# Results from patent publication US7034054B2, “Methods for the prevention and treatment of cerebral ischemia using non-alpha tocopherols” (Galileo Pharmaceuticals, Inc., priority 2000, dated 2006).
# Columns and labels:
# [1] = tested on: cerebral ischemia induced in rats (MCAO); assay: Animal cerebral infarct assay (Middle Cerebral Artery Occlusion, MCAO); assay type: in vivo, rat; settings: for reduce infarct size: rat; for total infarct volume relative to control animals / total ischemic damage relative to control animals: administered I.V. at the time of MCAO; for cerebral edema relative to control animals: administered at the time of MCAO; for cerebral edema relative to controls / total infarct volume relative to controls / total ischemic damage relative to controls: administered at the time of reperfusion
# Text: This assay is used to assess the efficacy of the test agents in protecting the brain against necrosis following cerebral ischemia induced in rats. Middle Cerebral Artery Occlusion (MCAO) is a widely used technique to induce transient focal cerebral ischemia in animal models. […] Furthermore, this model accurately represents the involvement of middle cerebral artery (MCA), the most affected vessel in human stroke, and also allows reperfusion as it happens in humans. MCAO by a two-hour occlusion is used to produce the maximum size of cortical infarction without increased mortality at twenty-four hours.
# Male Wistar rats (Hadan, Ind.) weighing 300-350 g were allowed free access to water and commercial rodent diet under standard laboratory conditions. The room temperature was maintained at 20-23° C. and room illumination was on a 12/12-hour light/dark cycle. The rats were acclimatized to the laboratory environment 5 to 7 days prior to the study.
# Before surgery, the animals were fasted overnight, but had free access to water. The-rats were anesthetized with 3.0% isoflurane (Aerrane, Front Dodge, Iowa) in […] and the animal's neck was shaved and sterilized before the operation. The animals were subjected to two hours MCAO using a modified intraluminal filament technique. A midline incision on the ventral part of the neck was made to expose external and internal carotid arteries. The right external and common carotid arteries were ligated by a suture (silk 5/0, Carlisle Laboratories, Farmers Branch, Tex.) and the right internal artery was temporarily ligated by a microvascular clip (Fine Science Tool Inc., Foster City, Calif.). A small incision was made in the common carotid artery and a nylon filament, its tip rounded by heating, prepared from a fishing line (Stren Fishing Lines, Wilmington, Del.) was inserted from the right common carotid artery. The filament was advanced into the internal carotid artery 18-20 mm from the point of bifurcation of internal and external arteries and a suture was tightly ligated around the filament. Two hours post occlusion, the animals were re-anesthetized to allow reperfusion for the remaining of the experiment by removal of the filament.
# Anesthesia was maintained by inhalation of 3.0% isoflurane in […] throughout the entire procedure. The exterior site of the right femoral vein was shaved and sterilized prior to surgery. A 3 cm incision was made in the right groin region and the femoral vein was isolated. A small incision was made on the femoral vein temporarily ligated with a microvascular clip to introduce and advance a polyethylene (PE-50) catheter (Becton. Dickinson and Co., Sparks, Md.). The catheter was secured in place with suture (silk 5/0, Cailisle Laboratories, Farmers Branch, Tex.). The other end of the catheter was attached to a syringe filled with the heparinized saline for the bolus injection. Using a hemostat a pocket was made subcutaneously on the back of the animal so the PE catheter can be brought up to the exteriorization point at the nape of the neck for either a bolus injection or a continuous injection by an osmotic pump.
# A standard rat gavage tube (Popper & Sons Inc, NY) was attached to a 3-cc hypodermic syringe. The animal was held by the shoulder in a vertical position. The feeding tube was placed into the mouth then advanced until it reached the stomach (the approximate insertion length of the tube was measured prior to the feeding). The content of the syringe was slowly delivered, and then the tube is withdrawn.
# The animals are sacrificed by CO2 asphyxiation (dry ice) 24 hours post-MCAO. The skull is removed to expose the brain using a small bone cutter and starting from the base of the skull. The brain is removed quickly, rinsed in a chilled saline and placed on a rat brain tissue slicer (ASI instrument, Mich.). Seven 2-mm thick coronal slices are cut from each brain using razor blades. […]
# [2] = Evans resorption sterility test for vitamin E; cited from earlier work
# [3] = 0.60 mg/kg, administered IV at MCAO
# [4] = 6 mg/kg, administered IV at MCAO
# [5] = administered at reperfusion (FIG. 2)
# [6] = administered at the time of MCAO (FIG. 1)
# [7] = at the same concentration, MCAO assay
smiles,measurement,setting,value
"Cc1cc(O)cc2c1O[C@](C)(CCC[C@H](C)CCC[C@H](C)CCCC(C)C)CC2 (relative stereo) [delta-tocopherol, [2R-[2R*(4R*,8R*)]]-3,4-dihydro-2,8-dimethyl-2-(4,8,12-trimethyltridecyl)-2H-1-benzo-pyran-6-ol]",reduce infarct size,[1]; [3],52%
same,reduction of total infarct volume compared with alpha-tocopherol,[1]; MCAO assay,more effective
same,activity relative to natural alpha-tocopherol,[2],one hundredth
"Cc1c(C)c2c(c(C)c1O)CC[C@@](C)(CCC[C@H](C)CCC[C@H](C)CCCC(C)C)O2 (relative stereo) [alpha-tocopherol, [2R-2R*(4R*,8R*)]-3,4-dihydro-2,5,7,8-tetramethyl-2-(4,8,12-trimethyltridecyl)-2H-1-benzopyran-6-ol, reference compound]",reduce infarct size,[1]; [4],42%
"Cc1c(O)cc2c(c1C)OC(C)(CCC(=O)O)CC2 (stereo not drawn) [gamma-CEHC, 2,7,8-trimethyl-2-(β-carboxy-ethyl)-6-hydroxy chroman]",total infarct volume relative to control animals,[1],significantly reduced
same,total ischemic damage relative to control animals,[1],significantly reduced
same,total infarct size,[1]; [5],able to reduce total infarct size
same,cerebral edema relative to control animals,[1],reduced
same,total infarct size,[1]; [6],able to reduce total infarct size
same,cerebral edema relative to controls,[1],reduction
same,total infarct volume relative to controls,[1],reduction
same,total ischemic damage relative to controls,[1],reduction
same,decreased neuronal damage,"[1]; drug ranges 0.1-5 mg/kg, IV at MCAO",50-65%
"Cc1c(O)cc2c(c1C)OC(C)(CCCC(C)CCCC(C)CCCC(C)C)CC2 (centres unmarked) [gamma-tocopherol, 3,4-dihydro-2,7,8-trimethyl-2-(4,8,12-trimethyltridecyl)-2H-1-benzyopyran-6-ol]",reduce infarct size,[1]; [3],81%
same,reduce infarct size,[1]; [4],82%
same,reduce infarct size,"[1]; 10.00 mg/kg by gavage, 3 hours pre-MCAO",77%
same,total infarct volume relative to control animals,[1],significantly reduced
same,total ischemic damage relative to control animals,[1],significantly reduced
same,total infarct size,[1]; [5],able to reduce total infarct size
same,cerebral edema relative to control animals,[1],significantly reduced
same,total infarct size,[1]; [6],able to reduce total infarct size
same,cerebral edema relative to controls,[1],reduction
same,total infarct volume relative to controls,[1],reduction
same,total ischemic damage relative to controls,[1],reduction
same,reduction of tissue edema compared with alpha- or delta-tocopherol,[1]; [7],more effective
same,reduction of total infarct volume compared with alpha- or delta-tocopherol,[1]; [7],more effective
